Assays:
Septoria tritici = assay: in vivo preventive Septoria tritici test (wheat); conditions: 21 days after inoculation
Description: (§1) To produce a suitable preparation of active compound, 1 part by weight of active compound or active compound combination is mixed with the stated amounts of solvent and emulsifier, and the concentrate is diluted with water to the desired concentration.
To test for preventive activity, young plants are sprayed with the preparation of active compound or active compound combination at the stated rate of application.
After the spray coating has been dried, the plants are sprayed with a spore suspension of Septoria tritici.
The plants remain for 48 hours in an incubation cabinet at approximately 20° C. and a relative atmospheric humidity of approximately 100% and afterwards for 60 hours at approximately 15° C. in a translucent incubation cabinet at a relative atmospheric humidity of approximately 100%.
The plants are placed in the greenhouse at a temperature of approximately 15° C. and a relative atmospheric humidity of approximately 80%.
The test is evaluated 21 days after the inoculation. 0% means an efficacy which corresponds to that of the untreated control, while an efficacy of 100% means that no disease is observed.

Puccinia triticina = assay: in vivo preventive Puccinia triticina test (wheat); conditions: 8 days after inoculation
Description: as §1
(§2) To test for preventive activity, young plants are sprayed with the preparation of active compound or active compound combination at the stated rate of application. After the spray coating has been dried, the plants are sprayed with a spore suspension of Puccinia triticina. The plants remain for 48 hours in an incubation cabinet at approximately 20° C. and a relative atmospheric humidity of approximately 100%. The plants are placed in the greenhouse at a temperature of approximately 20° C. and a relative atmospheric humidity of approximately 80%.
(§3) The test is evaluated 8 days after the inoculation. 0% means an efficacy which corresponds to that of the untreated control, while an efficacy of 100% means that no disease is observed.

Leptosphaeria nodorum = assay: in vivo preventive Leptosphaeria nodorum test (wheat); conditions: 8 days after inoculation
Description: as §1
as §2, with “suspension of Leptosphaeria nodorum. The plants” for “suspension of Puccinia triticina. The plants”, “of approximately 25° C. and” for “of approximately 20° C. and”
as §3

Pyrenophora teres = assay: in vivo preventive Pyrenophora teres test (barley); conditions: 8 days after inoculation
Description: as §1
as §2, with “Pyrenophora teres.” for “Puccinia triticina.”
as §3

CC(C)c1ccc(Cl)cc1CN(C(=O)c1c(C(F)F)nn(C)c1F)C1CC1 [A5, N-(5-chloro-2-isopropylbenzyl)-N-cyclopropyl-3-(difluoromethyl)-5-fluoro-1-methyl-1H-pyrazole-4-carboxamide]
Efficacy in % found (Septoria tritici; Table A1, wheat, 20 ppm a.i.): 10%
Efficacy in % found (Septoria tritici; Table A2, wheat, 15 ppm a.i.): 30%
Efficacy in % found (Septoria tritici; Table A2, wheat, 30 ppm a.i.): 50%
Efficacy in % found (Puccinia triticina; 7.5 ppm a.i.): 30%
Efficacy in % found (Puccinia triticina; 15 ppm a.i.): 50%
Efficacy in % found (Puccinia triticina; 30 ppm a.i.): 70%
Efficacy in % found (Leptosphaeria nodorum; 6.25 ppm a.i.): 17%
Efficacy in % found (Leptosphaeria nodorum; 12.5 ppm a.i.): 33%
Efficacy in % found (Pyrenophora teres; 25 ppm a.i.): 71%

O=C(NCCc1ncc(C(F)(F)F)cc1Cl)c1ccccc1C(F)(F)F [fluopyram]
Efficacy in % found (Septoria tritici; Table A2, wheat, 45 ppm a.i.): 40%
Efficacy in % found (Puccinia triticina; 45 ppm a.i.): 0%
Efficacy in % found (Leptosphaeria nodorum; 9.375 ppm a.i.): 0%
Efficacy in % found (Pyrenophora teres; 37.5 ppm a.i.): 43%

OC(Cc1ccccc1Cl)(Cn1nc[nH]c1=S)C1(Cl)CC1 (stereo not drawn) [prothioconazole]
Efficacy in % found (Septoria tritici; Table A1, wheat, 200 ppm a.i.): 30%
Efficacy in % found (Septoria tritici; Table A2, wheat, 60 ppm a.i.): 40%
Efficacy in % found (Septoria tritici; Table A2, wheat, 90 ppm a.i.): 20%
Efficacy in % found (Puccinia triticina; 30 ppm a.i.): 0%
Efficacy in % found (Puccinia triticina; 90 ppm a.i.): 20%
Efficacy in % found (Leptosphaeria nodorum; 18.75 ppm a.i.): 0%
Efficacy in % found (Leptosphaeria nodorum; 25 ppm a.i.): 0%
Efficacy in % found (Pyrenophora teres; 50 ppm a.i.): 0%
Efficacy in % found (Pyrenophora teres; 75 ppm a.i.): 0%

CC(C)(C)C(O)(CCc1ccc(Cl)cc1)Cn1cncn1 (stereo not drawn) [tebuconazole]
Efficacy in % found (Septoria tritici; Table A2, wheat, 60 ppm a.i.): 20%
Efficacy in % found (Puccinia triticina; 30 ppm a.i.): 30%
Efficacy in % found (Leptosphaeria nodorum; 25 ppm a.i.): 0%
Efficacy in % found (Pyrenophora teres; 50 ppm a.i.): 0%

CON=C(C(=O)OC)c1ccccc1CON=C(C)c1cccc(C(F)(F)F)c1 [trifloxystrobin]
Efficacy in % found (Septoria tritici; Table A1, wheat, 20 ppm a.i.): 30%

Reference: US20170347651A1, “ACTIVE COMPOUND COMBINATIONS COMPRISING A (THIO)CARBOXAMIDE DERIVATIVE AND FUNGICIDAL COMPOUND(S)” (Bayer CropScience Aktiengesellschaft, priority 2014, published 2017)
